Assay results published in ChEMBL document CHEMBL1201862, “PubChem BioAssay data set” (2004).
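Briefly, cells in 96-well plates were exposed to five compound concentrations for 48 h, and endpoints were estimated by linear interpolation. GI50 marks 50% less growth.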 Calls of active or inactive are those of the source. No stated cut-off is given here; in the data, active = GI50 up to about 1.1 µM and inactive = higher.

How the values were obtained:
Assay in all cases: NCI tumour cell line growth inhibition, 48 h
786-0 = test system: 786-0
A549 = test system: A549
BT-549 = test system: BT-549
DU-145 = test system: DU-145
HCC 2998 = test system: HCC 2998
HCT-15 = test system: HCT-15
M14 = test system: M14
MDA-MB-435 = test system: MDA-MB-435
MDA-N = test system: MDA-N
Malme-3M = test system: Malme-3M
NCI-H23 = test system: NCI-H23
NCI-H460 = test system: NCI-H460
NCI-H522 = test system: NCI-H522
PC-3 = test system: PC-3
RXF 393 = test system: RXF 393
SF-295 = test system: SF-295
SK-MEL-5 = test system: SK-MEL-5
SR = test system: SR
SW-620 = test system: SW-620
CAKI-1 = test system: CAKI-1

Compound | GI50 (786-0) | GI50 (A549) | GI50 (BT-549) | GI50 (DU-145) | GI50 (HCC 2998) | GI50 (HCT-15) | GI50 (M14) | GI50 (MDA-MB-435) | GI50 (MDA-N) | GI50 (Malme-3M) | GI50 (NCI-H23) | GI50 (NCI-H460) | GI50 (NCI-H522) | GI50 (PC-3) | GI50 (RXF 393) | GI50 (SF-295) | GI50 (SK-MEL-5) | GI50 (SR) | GI50 (SW-620) | GI50 (CAKI-1)
Cn1cc(NC(=O)Nc2cc(C(=O)Nc3cc(C(=O)Nc4ccc5cc(S(=O)(=O)O)cc(S(=O)(=O)O)c5c4)n(C)c3)n(C)c2)cc1C(=O)Nc1cc(C(=O)Nc2ccc3cc(S(=O)(=O)O)cc(S(=O)(=O)O)c3c2)n(C)c1 | > 100 µM (inactive) | 84.9 µM (inactive) | > 100 µM (inactive) | > 100 µM (inactive) | > 100 µM (inactive) | > 100 µM | 91.4 µM (inactive) | > 100 µM (inactive) | > 100 µM (inactive) | > 100 µM (inactive) | > 100 µM (inactive) | > 100 µM (inactive) | > 100 µM (inactive) | > 100 µM (inactive) | > 100 µM (inactive) | > 100 µM (inactive) | > 100 µM (inactive) | > 100 µM (inactive) | > 100 µM (inactive) | 
Cc1nn(-c2ccccc2)c(C)c1/C=N/NC(=O)c1sc(=S)n(-c2ccccc2)c1N | 3.78 µM (inactive) | 3.9 µM (inactive) | 9.71 µM (inactive) | 9.66 µM (inactive) | 4.61 µM (inactive) | 4.89 µM | 4.92 µM (inactive) | 4.47 µM (inactive) | 4.19 µM (inactive) | 3.58 µM (inactive) | 6.81 µM (inactive) | 3.08 µM (inactive) |  | 4.03 µM (inactive) | 1.46 µM (inactive) | 2.42 µM (inactive) | 4.06 µM (inactive) | 3.94 µM (inactive) | 45.5 µM (inactive) | 1.56 µM (inactive)
CC1(C(=O)O)CCC2(C)CCC3(C)C(=CC(=O)C4C5(C)CCC(O)C(C)(C)C5CCC43C)C2C1 (stereo not given) | 42.1 µM (inactive) | 40.3 µM (inactive) | 11.7 µM (inactive) | 29.6 µM (inactive) | 23.1 µM (inactive) | 34.8 µM | 36.3 µM (inactive) | 35.6 µM (inactive) | 38.7 µM (inactive) | > 100 µM (inactive) | 21.2 µM (inactive) |  | 22.7 µM (inactive) | 36.1 µM (inactive) | 36.1 µM (inactive) | 26.5 µM (inactive) | 24.4 µM (inactive) | 24.3 µM (inactive) | 37.5 µM (inactive) | 24.4 µM (inactive)
Cc1cn(CCC(N)C(=O)O)c(=O)[nH]c1=O (stereo not given) | > 100 µM (inactive) | > 100 µM (inactive) | > 100 µM (inactive) | > 100 µM (inactive) |  | > 100 µM | > 100 µM (inactive) | > 100 µM (inactive) | > 100 µM (inactive) | > 100 µM (inactive) | > 100 µM (inactive) | > 100 µM (inactive) | > 100 µM (inactive) | > 100 µM (inactive) | > 100 µM (inactive) | > 100 µM (inactive) | > 100 µM (inactive) | > 100 µM (inactive) | > 100 µM (inactive) | 
C=CCOCn1ccc(NC(=O)c2ccccc2)nc1=O | > 100 µM (inactive) | > 100 µM (inactive) | > 100 µM (inactive) | > 100 µM (inactive) | > 100 µM (inactive) | > 100 µM | > 100 µM (inactive) | > 100 µM (inactive) | > 100 µM (inactive) | > 100 µM (inactive) | > 100 µM (inactive) | > 100 µM (inactive) | > 100 µM (inactive) | > 100 µM (inactive) |  | > 100 µM (inactive) | > 100 µM (inactive) | > 100 µM (inactive) | > 100 µM (inactive) | > 100 µM (inactive)
O=c1oc2c/c(=C\c3ccc([N+](=O)[O-])cc3)c(=O)c3cccc1c3-2 | > 100 µM (inactive) | > 100 µM (inactive) | 54.6 µM (inactive) | > 100 µM (inactive) | > 100 µM (inactive) | > 100 µM | > 100 µM (inactive) | > 100 µM (inactive) | > 100 µM (inactive) | > 100 µM (inactive) | > 100 µM (inactive) | > 100 µM (inactive) | 28.1 µM (inactive) | > 100 µM (inactive) |  | > 100 µM (inactive) | > 100 µM (inactive) | > 100 µM (inactive) | > 100 µM (inactive) | 
Cc1cc(NS(=O)(=O)c2ccc(NO)cc2)no1 | 33 µM (inactive) | > 100 µM (inactive) | > 100 µM (inactive) | > 100 µM (inactive) | > 100 µM (inactive) | 32.4 µM | 70.6 µM (inactive) | 19.5 µM (inactive) | 20.7 µM (inactive) | > 100 µM (inactive) |  | > 100 µM (inactive) |  | > 100 µM (inactive) | > 100 µM (inactive) | > 10 µM (inactive) | > 100 µM (inactive) | 23.4 µM (inactive) | 29.2 µM (inactive) | > 100 µM (inactive)
CCOC(=O)CCC(C(=O)OCC)n1nnc2ccc(Nc3c(C)[n+]([O-])c4ccc(Cl)cc4[n+]3[O-])cc21 (stereo not given) | 44 µM (inactive) | 57.3 µM (inactive) | 54.3 µM (inactive) | 50.6 µM (inactive) |  | 27.9 µM | 37.5 µM (inactive) | 51.9 µM (inactive) | 54.7 µM (inactive) | > 100 µM (inactive) | 33.5 µM (inactive) | 49.7 µM (inactive) | 43.4 µM (inactive) | > 100 µM (inactive) | 26.9 µM (inactive) | 27.8 µM (inactive) | 39.4 µM (inactive) | 33 µM (inactive) | 54 µM (inactive) | 49.2 µM (inactive)
COc1cc(NC(C)=O)ccc1C(=O)N/N=C/c1ccco1 | > 100 µM (inactive) | > 100 µM (inactive) | > 100 µM (inactive) | > 100 µM (inactive) |  | > 100 µM | > 100 µM (inactive) | > 100 µM (inactive) | > 100 µM (inactive) | > 100 µM (inactive) | > 100 µM (inactive) |  | > 100 µM (inactive) | > 100 µM (inactive) | > 100 µM (inactive) | > 100 µM (inactive) | 44.5 µM (inactive) | 26.7 µM (inactive) | > 100 µM (inactive) | 65 µM (inactive)
O=c1c(/C=C/c2c(O)ccc3ccccc23)nnc2sc(-c3cccc(Br)c3)nn12 | 26.6 µM (inactive) | 32.1 µM (inactive) | 11.6 µM (inactive) | 16.1 µM (inactive) | 20.1 µM (inactive) | 6.78 µM | 15.8 µM (inactive) | 21.1 µM (inactive) | 28.3 µM (inactive) | 23 µM (inactive) | 14.7 µM (inactive) | 25.4 µM (inactive) | 15.5 µM (inactive) | 22.4 µM (inactive) |  | 32.7 µM (inactive) | 17.8 µM (inactive) | 4.72 µM (inactive) | 25.6 µM (inactive) | 15.3 µM (inactive)
Cn1c(=O)cc(NNc2ccc(Cl)c(Cl)c2)[nH]c1=O | 12.4 µM (inactive) | 16.2 µM (inactive) | 16 µM (inactive) | 17.5 µM (inactive) | 2.53 µM (inactive) | 3.75 µM | 5.25 µM (inactive) | 3.31 µM (inactive) | 9.06 µM (inactive) | > 10 µM (inactive) | 29.2 µM (inactive) | 4.86 µM (inactive) |  | 12.6 µM (inactive) | 22.9 µM (inactive) | 15.3 µM (inactive) | 5.31 µM (inactive) | > 100 µM (inactive) | 6.1 µM (inactive) | 14.1 µM (inactive)
